Measurements as given in PubChem BioAssay (NCI).
“And” between values parts separate entries of the source, which are not always exact repeats. Equal values may be shown once.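 How tested: cells in 96-well plates exposed to compound for 48 hours at five concentrations. Here, GI50 denotes the concentration required for 50% inhibition of growth. Definition used: TGI = concentration required for complete inhibition of growth.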

Assays:
Test in all cases: NCI tumour cell line growth inhibition, 48 h
SF-268 CNS = test system: SF-268 CNS
MCF7 breast = test system: MCF7 breast
A549 NSCLC = test system: A549 NSCLC
NCI-H460 lung = test system: NCI-H460 lung
OVCAR-8 ovarian = test system: OVCAR-8 ovarian
SF-295 CNS = test system: SF-295 CNS
SK-MEL-2 melanoma = test system: SK-MEL-2 melanoma
OVCAR-5 ovarian = test system: OVCAR-5 ovarian
A498 renal = test system: A498 renal
ACHN renal = test system: ACHN renal

Row | Structure (SMILES) | GI50 (SF-268 CNS) | TGI (SF-268 CNS) | GI50 (MCF7 breast) | TGI (MCF7 breast) | GI50 (A549 NSCLC) | TGI (A549 NSCLC) | GI50 (NCI-H460 lung) | TGI (NCI-H460 lung) | GI50 (OVCAR-8 ovarian) | TGI (OVCAR-8 ovarian) | GI50 (SF-295 CNS) | TGI (SF-295 CNS) | GI50 (SK-MEL-2 melanoma) | TGI (SK-MEL-2 melanoma) | GI50 (OVCAR-5 ovarian) | TGI (OVCAR-5 ovarian) | GI50 (A498 renal) | TGI (A498 renal) | GI50 (ACHN renal) | TGI (ACHN renal)
1 | CN(C)CCNC(=O)NC[C@H]1CC[C@@H]2[C@H](O1)c1cc(C(F)(F)F)ccc1N[C@H]2c1ccccc1 | 0.589 µM | 39.6 µM | 0.0389 µM | 13.8 µM | 0.175 µM | 17.4 µM | 0.14 µM | 11.8 µM | 0.233 µM | > 100 µM | 194 nM | 5.73 µM | 0.15 µM | 2.32 µM | 0.609 µM | 22.6 µM | 0.196 µM | 10.5 µM | 10.5 µM | 23 µM
2 | COc1cccc2c1C(=O)c1c(O)c3c(c(O)c1C2=O)CC(O)(C(=O)CO)CC3OC1CC(N)C(O)C(C)O1 (configuration not stated) | 7.5 µg/mL | 75 µg/mL | 2.76 µg/mL and 10.7 µg/mL | 75 µg/mL and > 150 µg/mL | 4.17 µg/mL and 22.6 µg/mL | 75 µg/mL and > 150 µg/mL | 0.709 µg/mL and 0.986 µg/mL | 75 µg/mL and 27.3 µg/mL | 19.5 µg/mL and 45.7 µg/mL | 75 µg/mL and > 150 µg/mL | 18.6 µg/mL and 14.3 µg/mL | 75 µg/mL and 116 µg/mL | 24.1 µg/mL and 44.3 µg/mL | 75 µg/mL and 138 µg/mL | 75 µg/mL and > 150 µg/mL | 75 µg/mL and > 150 µg/mL | 19 µg/mL and 33.8 µg/mL | 75 µg/mL and > 150 µg/mL | 20.2 µg/mL and 12.2 µg/mL | 75 µg/mL and > 150 µg/mL
3 | CN(C)c1ccc(N=C2C=CC(=O)c3ccccc32)cc1 | 2.92 µM | 13.1 µM | 1.87 µM | 7.46 µM | 1.82 µM | 3.89 µM | 1.98 µM | 4.86 µM | 3.71 µM | 18.2 µM | 1680 nM | 3.66 µM | 3.5 µM | 11 µM | 12.6 µM | 28.8 µM | 12 µM | 25.2 µM | 4.1 µM | 18.4 µM
4 | O=C1C2C3C=CC(C2C(=O)N1CN1CCSCC1)C1C2C(=O)N(CN4CCSCC4)C(=O)C2C31 (configuration not stated) | – | > 91.6 µM | 69.1 µM | – | 77.1 µM | > 100 µM | 40 µM | > 57.3 µM | – | > 100 µM | – | > 100 µM | – | > 100 µM | – | > 100 µM | – | > 100 µM | – | > 100 µM
5 | Nc1ncnc2c1ccn2[C@@H]1O[C@H]([C@H](O)c2ccc(Cl)c(F)c2)[C@@H](O)[C@H]1O | > 100 µM | > 100 µM | 50.2 µM | > 100 µM | > 100 µM | > 100 µM | > 100 µM | > 100 µM | > 100 µM | > 100 µM | > 100000 nM | > 100 µM | > 100 µM | > 100 µM | > 100 µM | > 100 µM | 52.4 µM | > 100 µM | > 100 µM | > 100 µM
6 | Cc1nccc2c3ccc(OCc4cn(-c5ccc(Cl)cc5)nn4)cc3n(CC(C)C)c12 | 11.2 µM | > 33.3 µM | 1.45 µM | 9.29 µM | 2.29 µM | 13 µM | 2.33 µM | 12.9 µM | 2.73 µM | 16.2 µM | 1250 nM | 7.64 µM | 5.59 µM | 22.5 µM | 4.68 µM | 23.2 µM | 1.39 µM | 9.32 µM | 3.62 µM | 9.59 µM
7 | CCn1ccc(NS(=O)(=O)c2ccc(N)cc2)nc1=O | > 100 µM | > 100 µM | > 100 µM | > 100 µM | > 100 µM | > 100 µM | > 100 µM | > 100 µM | > 100 µM | > 100 µM | > 100000 nM | > 100 µM | > 100 µM | > 100 µM | > 100 µM | > 100 µM | > 100 µM | > 100 µM | > 100 µM | > 100 µM
8 | COc1cc(/C=C/C(=O)c2c(C)nc3ccccc3c2C)ccc1OCCCN1CCN(C(=O)c2ccco2)CC1 | 10.9 µM | 25.8 µM | 3.8 µM | 15.8 µM | 11.3 µM | 27.3 µM | 8.91 µM | 21.7 µM | 8.43 µM | 42.4 µM | 8420 nM | 25.1 µM | 16.1 µM | 37.7 µM | 18.1 µM | 32 µM | 4.14 µM | 17.7 µM | 10.2 µM | 25.1 µM
9 | Cc1cc(=O)oc2cc(OC/C=C3\CCC(=O)O3)ccc12 | 15.3 µM | 50.2 µM | 5.73 µM | 27.6 µM | 31.2 µM | > 91.4 µM | 19.3 µM | > 62.7 µM | 23.5 µM | > 74.5 µM | 59000 nM | > 100 µM | 17.9 µM | 60.2 µM | 17.1 µM | 36.4 µM | 28.7 µM | 79.4 µM | 5.05 µM | 15.4 µM
10 | Nc1c(F)cc(-c2nc3cc(F)ccc3[se]2)cc1Br | 29.4 µM | > 100 µM | 0.0267 µM | > 100 µM | 0.137 µM | > 100 µM | 0.0189 µM | > 35.2 µM | 42.1 µM | > 100 µM | 12700 nM | > 100 µM | 75 µM | > 100 µM | 0.067 µM | > 33.5 µM | 5.4 µM | 36.9 µM | 2 µM | > 100 µM
11 | CCCCCC[C@H](C)NC(=O)c1ccc(Nc2nc3ccccc3c3occc23)cc1 | 6.39 µM | > 100 µM | 5.86 µM | > 100 µM | 4.35 µM | > 100 µM | 3.81 µM | > 100 µM | 2.92 µM | 8 µM | 2620 nM | > 100 µM | 2.64 µM | 6.83 µM | 5.35 µM | > 100 µM | 2.74 µM | 7.54 µM | 13.7 µM | 40 µM
12 | Cc1cc(Cl)cc(Cc2cc(Cl)cc(C)c2O)c1O | 2.9 µM | 16.8 µM | 2.47 µM | 9.66 µM | 2.91 µM | 11.1 µM | 3.14 µM | 10.5 µM | 2.1 µM | 6.16 µM | 2490 nM | 7.14 µM | 2.6 µM | 5.73 µM | 3.35 µM | 12.3 µM | 3.05 µM | 14.1 µM | 2.26 µM | 7.26 µM
